Laboratory results as given in US9944603B2, “Compounds and methods for the treatment of cystic fibrosis” (Flatley Discovery Lab, LLC, priority 2013, dated 2018).
pEC50: −log10 of the molar value.

Target: T1, human F508del CFTR (Homo sapiens, UniProt P13569, DEL508-508)
T1 construct: expressed in transfected cells
Assay: CFTR-YFP Assay, CFTR Corrector Protocol (YFP flux assay)
Assay type: cell-based
Settings: for Emax: normalized to the positive control, read-out: EMAX (% Efficacy, EMAX normalized to the positive control)

T1 sequence (P13569 with tags, fused parts or gaps DEL508-508): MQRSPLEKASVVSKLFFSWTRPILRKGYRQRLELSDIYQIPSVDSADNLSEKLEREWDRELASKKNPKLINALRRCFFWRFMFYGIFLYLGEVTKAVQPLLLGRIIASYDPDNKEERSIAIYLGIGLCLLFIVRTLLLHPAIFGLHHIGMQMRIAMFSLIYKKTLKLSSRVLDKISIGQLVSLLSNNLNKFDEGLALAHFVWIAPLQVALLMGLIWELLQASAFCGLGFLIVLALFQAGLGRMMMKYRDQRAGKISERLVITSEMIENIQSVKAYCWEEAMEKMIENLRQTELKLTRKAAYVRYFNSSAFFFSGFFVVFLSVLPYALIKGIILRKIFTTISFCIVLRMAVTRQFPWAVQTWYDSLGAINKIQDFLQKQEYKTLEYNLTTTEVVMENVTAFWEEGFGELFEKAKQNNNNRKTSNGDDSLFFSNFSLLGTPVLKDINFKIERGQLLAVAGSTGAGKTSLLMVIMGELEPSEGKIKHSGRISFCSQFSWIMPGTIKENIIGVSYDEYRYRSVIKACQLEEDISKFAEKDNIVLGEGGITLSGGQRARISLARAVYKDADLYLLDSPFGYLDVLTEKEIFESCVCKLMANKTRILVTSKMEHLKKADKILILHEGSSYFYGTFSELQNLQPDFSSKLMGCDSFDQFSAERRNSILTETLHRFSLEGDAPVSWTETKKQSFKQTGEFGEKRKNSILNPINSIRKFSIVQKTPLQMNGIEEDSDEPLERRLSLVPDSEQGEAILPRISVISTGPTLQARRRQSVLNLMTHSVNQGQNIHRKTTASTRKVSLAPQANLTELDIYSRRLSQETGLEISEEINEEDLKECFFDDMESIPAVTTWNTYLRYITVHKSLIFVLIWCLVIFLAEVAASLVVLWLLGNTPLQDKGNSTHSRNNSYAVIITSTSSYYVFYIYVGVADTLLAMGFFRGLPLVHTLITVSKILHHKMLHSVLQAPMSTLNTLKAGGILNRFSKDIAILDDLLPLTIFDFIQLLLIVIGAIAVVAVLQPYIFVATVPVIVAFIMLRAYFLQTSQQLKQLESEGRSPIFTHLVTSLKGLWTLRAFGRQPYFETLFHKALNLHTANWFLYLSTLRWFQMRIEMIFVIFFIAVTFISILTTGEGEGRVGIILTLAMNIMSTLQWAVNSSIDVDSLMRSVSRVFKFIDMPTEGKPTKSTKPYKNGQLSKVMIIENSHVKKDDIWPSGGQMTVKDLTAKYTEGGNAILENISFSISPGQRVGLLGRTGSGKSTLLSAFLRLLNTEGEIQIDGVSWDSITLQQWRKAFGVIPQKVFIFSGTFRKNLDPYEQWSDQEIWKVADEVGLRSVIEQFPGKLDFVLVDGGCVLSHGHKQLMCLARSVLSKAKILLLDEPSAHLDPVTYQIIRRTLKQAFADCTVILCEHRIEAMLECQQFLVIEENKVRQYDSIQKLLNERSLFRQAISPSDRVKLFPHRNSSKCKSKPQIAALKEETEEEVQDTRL

Row | Compound | pEC50 | Emax [%]
1 | O=S(=O)(c1ccc2c(c1)OC(F)(F)O2)N1CCC(n2c(-c3ccncc3Cl)nc3cccnc32)CC1 [Example 38] | > 5.00 | > 80
2 | O=S(=O)(c1ccc2c(c1)OC(F)(F)O2)N1CCC(n2c(-c3ccccc3Cl)nc3cccnc32)CC1 [Example 39] | > 5.00 | 30 to 80
3 | O=S(=O)(c1ccc2c(c1)OC(F)(F)O2)N1CCC(n2c(-c3ccncc3Cl)nc3ncccc32)CC1 [Example 40] | > 5.00 | 30 to 80
4 | CCc1ccc(S(=O)(=O)N2CCC(n3c(-c4ccncc4Cl)nc4cccnc43)CC2)cc1 [Example 41] | > 5.00 | 30 to 80
5 | CCc1ccc(S(=O)(=O)N2CCC(n3c(-c4ccncc4Cl)nc4ccc(OC)nc43)CC2)cc1 [Example 42] | > 5.00 | 30 to 80
6 | Cc1ccc2nc(-c3ccc(F)cc3F)n(C3CCN(S(=O)(=O)c4ccc5c(c4)OC(F)(F)O5)CC3)c2n1 [Example 43] | > 5.00 | 30 to 80
7 | [2H]C1([2H])Oc2ccc(S(=O)(=O)N3CCC(n4c(-c5ccncc5Cl)nc5cccnc54)CC3)cc2O1 [Example 44] | > 5.00 | 30 to 80
8 | CCc1ccc(S(=O)(=O)N2CCC(n3c(-c4cccnc4Cl)nc4cccnc43)CC2)cc1 [Example 45] | > 5.00 | 30 to 80
9 | O=S(=O)(c1ccc(OC(F)F)cc1)N1CCC(n2c(-c3ccccc3Cl)nc3cccnc32)CC1 [Example 46] | > 5.00 | 30 to 80
10 | CCc1ccc(S(=O)(=O)N2CCC(n3c(-c4ccc(F)cc4F)nc4cccnc43)CC2)cc1 [Example 47] | > 5.00 | 30 to 80
11 | O=S(=O)(c1ccc2c(c1)OC(F)(F)O2)N1CCC(n2c(-c3ccccc3)nc3cccnc32)CC1 [Example 48] | > 5.00 | 30 to 80
12 | COc1ccc(S(=O)(=O)N2CCC(n3c(-c4ccccc4C(F)(F)F)nc4cccnc43)CC2)cc1Cl [Example 49] | > 5.00 | 30 to 80
13 | COc1ccc(S(=O)(=O)N2CCC(n3c(-c4ccccc4C#N)nc4cccnc43)CC2)cc1Cl [Example 50] | > 5.00 | 30 to 80
14 | O=S(=O)(c1ccc2c(c1)CCC2)N1CCC(n2c(-c3ccncc3F)nc3cccnc32)CC1 [Example 51] | > 5.00 | 30 to 80
15 | O=S(=O)(c1ccc2c(c1)OC(F)(F)O2)N1CCC(n2c(-c3ccncc3F)nc3cccnc32)CC1 [Example 52] | > 5.00 | 30 to 80
16 | COc1ccc(S(=O)(=O)N2CCC(n3c(-c4ccc(F)cc4F)nc4cccnc43)CC2)cc1Cl [Example 53] | > 5.00 | 30 to 80

Row | Compound | pEC50 | Emax [%]
17 | Cc1ccc2nc(-c3ncccc3Cl)n(C3CCN(S(=O)(=O)c4ccc5c(c4)OC(F)(F)O5)CC3)c2n1 [Example 54] | > 5.00 | 30 to 80
18 | COc1ccc(S(=O)(=O)N2CCC(n3c(-c4ccccc4OC)nc4cccnc43)CC2)cc1Cl [Example 55] | > 5.00 | 30 to 80
19 | O=S(=O)(c1ccc(OC(F)F)cc1)N1CCC(n2c(-c3ccncc3Cl)nc3cccnc32)CC1 [Example 56] | > 5.00 | 30 to 80
20 | COc1ccc(S(=O)(=O)N2CCC(n3c(-c4ccc5c(c4)OCO5)nc4cccnc43)CC2)cc1Cl [Example 57] | > 5.00 | 30 to 80
21 | COc1ccc2nc(-c3ccncc3Cl)n(C3CCN(S(=O)(=O)c4ccc(OC)c(Cl)c4)CC3)c2n1 [Example 58] | > 5.00 | 10 to 30
22 | Cc1ccc(S(=O)(=O)N2CCC(n3c(-c4ccccc4Cl)nc4cccnc43)CC2)cc1 [Example 59] | > 5.00 | 30 to 80
23 | COc1ccc(S(=O)(=O)N2CCC(n3c(-c4ccccc4Cl)nc4cccnc43)CC2)cc1F [Example 60] | > 5.00 | 30 to 80
24 | Cc1ccc(S(=O)(=O)N2CCC(n3c(-c4ccccc4)nc4ccc(C)nc43)CC2)cc1 [Example 61] | > 5.00 | 30 to 80
25 | Cc1ccc2nc(-c3ccccc3)n(C3CCN(S(=O)(=O)c4ccc5c(c4)OCO5)CC3)c2n1 [Example 62] | > 5.00 | 30 to 80
26 | Cc1ccc2nc(-c3ccccc3)n(C3CCN(S(=O)(=O)c4ccc(C)c(Cl)c4)CC3)c2n1 [Example 63] | > 5.00 | 30 to 80
27 | COc1ccc(S(=O)(=O)N2CCC(n3c(-c4ccccc4)nc4ccc(C)nc43)CC2)cc1F [Example 64] | > 5.00 | 30 to 80
28 | Cc1ccc(S(=O)(=O)N2CCC(n3c(-c4ccccc4Cl)nc4ccc(C)nc43)CC2)cc1 [Example 65] | > 5.00 | 30 to 80
29 | O=S(=O)(N1CCOCC1)N1CCC(n2c(-c3ccccc3)nc3cccnc32)CC1 [Example 67] | < 4.70 | 10 to 30
30 | COc1cccc(S(=O)(=O)N2CCC(n3c(-c4ccccc4)nc4cccnc43)CC2)c1 [Example 68] | > 5.00 | 10 to 30
31 | CC(=O)Nc1ccc(S(=O)(=O)N2CCC(n3c(-c4ccccc4)nc4cccnc43)CC2)cc1Cl [Example 70] | > 5.00 | 10 to 30
32 | COc1ccc(S(=O)(=O)N2CCC(n3c(-c4ccccc4OC(C)=O)nc4cccnc43)CC2)cc1Cl [Example 80] | > 5.00 | 30 to 80

The next lines start with the values.

Row | pEC50 | Emax [%] | Compound
33 | > 5.00 | 10 to 30 | CC(C)c1ccc(S(=O)(=O)N2CCC(n3c(-c4ccccc4)nc4cccnc43)CC2)cc1 [Example 69]
34 | > 5.00 | 10 to 30 | N#Cc1ccc(S(=O)(=O)N2CCC(n3c(-c4ccccc4)nc4cccnc43)CC2)cc1Cl [Example 71]
35 | > 5.00 | 10 to 30 | O=S(=O)(c1c[nH]cn1)N1CCC(n2c(-c3ccccc3)nc3cccnc32)CC1 [Example 72]
36 | > 5.00 | 30 to 80 | COc1ccc(S(=O)(=O)N2CCC(n3c(-c4ccccc4)nc4cccnc43)CC2)cc1C [Example 73]
37 | > 5.00 | 30 to 80 | COc1ccc(S(=O)(=O)N2CCC(n3c(-c4ccccc4)nc4cccnc43)CC2)cc1C(F)(F)F [Example 74]
38 | 4.70 to 5.00 | 30 to 80 | COc1ccc(S(=O)(=O)N2CCC(n3c(-c4ncc[nH]4)nc4cccnc43)CC2)cc1Cl [Example 75]
39 | > 5.00 | 30 to 80 | COc1ccc(S(=O)(=O)N2CCC(n3c(-c4ccccc4OC(F)(F)F)nc4cccnc43)CC2)cc1Cl [Example 76]
40 | > 5.00 | 30 to 80 | COc1ccc(S(=O)(=O)N2CCC(n3c(-c4ccc(F)cc4)nc4cccnc43)CC2)cc1Cl [Example 77]
41 | > 5.00 | 10 to 30 | COc1ccc(S(=O)(=O)N2CCC(n3c(-c4ccc(C(F)(F)F)cc4)nc4cccnc43)CC2)cc1Cl [Example 78]
42 | > 5.00 | 30 to 80 | COC(=O)c1ccccc1-c1nc2cccnc2n1C1CCN(S(=O)(=O)c2ccc(OC)c(Cl)c2)CC1 [Example 79]
43 | > 5.00 | 30 to 80 | COc1ccc(S(=O)(=O)N2CCC(n3c(-c4ccccc4)nc4ccccc43)CC2)cc1Cl [Example 81]
44 | > 5.00 | 30 to 80 | O=S(=O)(c1ccc2c(c1)OC(F)(F)O2)N1CCC(n2c(-c3ccccc3)nc3ccccc32)CC1 [Example 82]
45 | > 5.00 | 30 to 80 | Cc1ccc2nc(-c3ccccc3F)n(C3CCN(S(=O)(=O)c4ccc5c(c4)OC(F)(F)O5)CC3)c2n1 [Example 83]
46 | > 5.00 | 30 to 80 | Cc1ccc2nc(-c3ccc(F)cc3)n(C3CCN(S(=O)(=O)c4ccc5c(c4)OC(F)(F)O5)CC3)c2n1 [Example 84]
47 | < 4.70 | 10 to 30 | COc1ccc(S(=O)(=O)N2CCC(n3c(-c4ccccc4Cl)nc4ccc(C)nc43)CC2)cc1OC [Example 85]
48 | > 5.00 | 30 to 80 | Cc1ccc2nc(-c3ccccc3Cl)n(C3CCN(S(=O)(=O)c4ccc5c(c4)OC(F)(F)O5)CC3)c2n1 [Example 86]

Row | pEC50 | Emax [%] | Compound
49 | < 4.70 | 10 to 30 | Cc1ccc2nc(-c3ccc4c(c3)OC(F)(F)O4)n(C3CCN(S(=O)(=O)c4ccc5c(c4)OC(F)(F)O5)CC3)c2n1 [Example 87]
50 | < 4.70 | 30 to 80 | COc1ccc(S(=O)(=O)N2CCC(n3c(-c4cccnc4Cl)nc4cccnc43)CC2)cc1Cl [Example 88]
51 | 4.70 to 5.00 | > 80 | COc1ccc(S(=O)(=O)N2CCC(n3c(-c4ccncc4Cl)nc4cccnc43)CC2)cc1Cl [Example 89]
52 | 4.70 to 5.00 | 30 to 80 | COc1ccc(S(=O)(=O)N2CCC(n3c(-c4ncccc4Cl)nc4cccnc43)CC2)cc1Cl [Example 90]
53 | > 5.00 | 30 to 80 | CCc1ccc(S(=O)(=O)N2CCC(n3c(-c4ncccc4Cl)nc4cccnc43)CC2)cc1 [Example 91]
54 | > 5.00 | 30 to 80 | O=S(=O)(c1ccc2c(c1)OCO2)N1CCC(n2c(-c3cccnc3Cl)nc3cccnc32)CC1 [Example 92]
55 | > 5.00 | 30 to 80 | O=S(=O)(c1ccc2c(c1)OCO2)N1CCC(n2c(-c3ncccc3Cl)nc3cccnc32)CC1 [Example 93]
56 | > 5.00 | 10 to 30 | O=S(=O)(c1cccc(OC(F)F)c1)N1CCC(n2c(-c3ccncc3Cl)nc3cccnc32)CC1 [Example 94]
57 | 4.70 to 5.00 | 10 to 30 | Cc1ccc(S(=O)(=O)N2CCC(n3c(-c4ccncc4Cl)nc4cccnc43)CC2)cc1C#N [Example 95]
58 | > 5.00 | 30 to 80 | Cc1ccc(S(=O)(=O)N2CCC(n3c(-c4ccccc4Cl)nc4cccnc43)CC2)cc1C#N [Example 96]
59 | > 5.00 | 30 to 80 | Cc1ccc2nc(-c3ccccc3)n(C3CCN(S(=O)(=O)c4ccc5c(c4)OC(F)(F)O5)CC3)c2n1 [Example 97]
60 | > 5.00 | 10 to 30 | COc1ccc(S(=O)(=O)N2CCC(n3c(-c4ccccc4)cc4cccnc43)CC2)cc1Cl [Example 98]
61 | > 5.00 | 30 to 80 | O=S(=O)(c1ccc2c(c1)OC(F)(F)O2)N1CCC(n2c(-c3ccccc3)cc3cccnc32)CC1 [Example 99]
62 | > 5.00 | 10 to 30 | O=S(=O)(c1ccc2c(c1)OCO2)N1CCC(n2c(-c3ccccc3C(F)(F)F)nc3cccnc32)CC1 [Example 100]
63 | > 5.00 | 10 to 30 | Cc1ccc2nc(-c3cccnc3Cl)n(C3CCN(S(=O)(=O)c4ccc5c(c4)OCO5)CC3)c2n1 [Example 101]
